Where two headings read alike, the source gives them in different places.

What all share (assay type): in vivo
Assay [1] relates to T. Urticae. In words: Tetranychus urticae bean leaf disc test, comparison with prior art compounds A and B. The following applies: 12.5 ppm spray on bean leaf discs; mixed ages; 8 days; egg, larval and adult mortality. An excerpt: 4.4.2 In a further test, the efficacy of one of the compounds giving 100% control in Example 4.4.1 above was compared to the efficacy of imidazoline compounds from the prior art (compounds A and B).
Bean leaf discs on agar in 24-well microtiter plates were sprayed with test solutions at an application rate of 12.5 ppm. After drying, the leaf discs are infested with mite populations of mixed ages. 8 days later, discs are checked for egg mortality, larval mortality, and adult mortality.

In assay [2] the test system is Myzus persicae. In words: Myzus persicae (green peach aphid) sunflower leaf disc spray test. The following applies: for pest or weed control at 200 ppm: Myzus persicae, foliar, 144 h, read-out: control of Myzus persicae. As for the experimental part:
4.2 Myzus Persicae (Green Peach Aphid):
Sunflower leaf discs were placed on agar in a 24-well microtiter plate and sprayed with test solutions at an application rate of 200 ppm. After drying, the leaf discs were infested with an aphid population of mixed ages. After an incubation period of 6 DAT, samples were checked for mortality.

The test system of assay [3] is Heliothis virescens. In words: Heliothis virescens (tobacco budworm) egg/larvae test on artificial diet. The following applies: for pest or weed control at 200 ppm: Heliothis virescens, 96 h, read-out: control of Heliothis virescens. As for the experimental part:
4.1 Heliothis Virescens (Tobacco Budworm):
Eggs (0-24 h old) were placed in 24-well microtiter plate on artificial diet and treated with test solutions at an application rate of 200 ppm by pipetting. After an incubation period of 4 days, samples were checked for egg mortality, larval mortality, and growth regulation.

Assay [4] has as its system Tetranychus urticae. In words: Tetranychus urticae (two-spotted spider mite) bean leaf disc spray test. Conditions: for pest or weed control at 200 ppm: Tetranychus urticae, foliar, 192 h, read-out: control of Tetranychus urticae. An excerpt:
4.4 Tetranychus Urticae (Two-Spotted Spider Mite):
4.4.1 Bean leaf discs on agar in 24-well microtiter plates were sprayed with test solutions at an application rate of 200 ppm. After drying, the leaf discs are infested with mite populations of mixed ages. 8 days later, discs are checked for egg mortality, larval mortality, and adult mortality.

Assay [5] has as its system Myzus persicae. In words: Myzus persicae (green peach aphid) pea seedling root uptake test. The following applies: for pest or weed control at 24 ppm: Myzus persicae, 144 h, read-out: control of Myzus persicae. An excerpt:
4.3 Myzus Persicae (Green Peach Aphid):
Roots of pea seedlings, infested with an aphid population of mixed ages, were placed directly in the test solutions of 24 ppm. 6 days after introduction, samples were checked for mortality.

Where [6] appears, read: 200 ppm spray on sunflower leaf discs, mixed ages, 6 DAT, mortality.
Setting [7] is: 200 ppm by pipetting on eggs (0-24 h old) on artificial diet, 4 days, egg mortality, larval mortality, growth regulation.
Setting [8] is: 200 ppm spray on bean leaf discs, mixed ages, 8 days, egg, larval and adult mortality.
The mark [9] stands for this setting: 24 ppm test solution, roots of infested pea seedlings, 6 days, mortality.

Consider `CCC(Oc1cccc(Cl)c1Cl)C1=NCCN1` (stereo not shown) [A], for which the Control % in assay [1] is listed as 0%.
Molecule `CCC(Oc1cccc(C)c1Cl)C1=NCCN1` (stereo not shown) [B] gave a Control % in assay [1] of 50%.
With `CCC(Oc1cccc(C(F)F)c1Cl)C1=NCCN1` (stereo not shown) [Compound 1.002, 2-[1-(2-Chloro-3-difluoromethyl-phenoxy)-propyl]-4,5-dihydro-1H-imidazole], the pest or weed control at 200 ppm in assay [2] amounted to 100%; in assay [3], 0%; in assay [4], 100%. Also, in assay [5], the pest or weed control at 24 ppm was 80%.
Regarding `CCC(Oc1cccc(C(F)F)c1Cl)C1=NCCN1C(=O)OC(C)(C)C` (stereo not shown) [Compound 1.003], the values for the pest or weed control at 200 ppm in assay [2] (setting [6]), in assay [3] (setting [7]) and in assay [4] (setting [8]) were 100%, 0% and 0%, respectively. The pest or weed control at 24 ppm in assay [5] (setting [9]) was 0%.
In the case of `CCC(Oc1cccc(CO)c1Cl)C1=NCCN1` (stereo not shown) [Compound 1.005], the pest or weed control at 200 ppm in assay [2] (setting [6]), in assay [3] (setting [7]) and in assay [4] (setting [8]) was 0% each time. For the same molecule, the pest or weed control at 24 ppm in assay [5] (setting [9]) came to 0%.
Turning to `CCC(Oc1cccc(CF)c1Cl)C1=NCCN1` (stereo not shown) [Compound 1.006], the pest or weed control at 200 ppm in assay [2] (setting [6]), in assay [3] (setting [7]) and in assay [4] (setting [8]) was 100% in each case. For the same molecule, the pest or weed control at 24 ppm in assay [5] (setting [9]) is 80%.
As for `CCC(Oc1cccc(CO)c1Cl)C1=NCCN1C(=O)OC(C)(C)C` (stereo not shown) [Compound 1.007], the pest or weed control at 200 ppm in assay [2] (setting [6]), in assay [3] (setting [7]) and in assay [4] (setting [8]) was 0% in each case.
As to `CCC(Oc1cccc(COC)c1Cl)C1=NCCN1` (stereo not shown) [Compound 1.008], in assay [2] (setting [6]), the “control of Myzus persicae” value is on record as 0%. The “control of Heliothis virescens” value in assay [3] (setting [7]) turned out to be 80%. For the same molecule, the “control of Tetranychus urticae” value in assay [4] (setting [8]) is on record as 0%.
Take `C#Cc1cccc(OC(CC)C2=NCCN2)c1Cl` (stereo not shown) [Compound 1.011, 2-[1-(2-Chloro-3-ethynyl-phenoxy)-propyl]-4,5-dihydro-1H-imidazole]: the pest or weed control at 200 ppm stood at 50% in assay [2] (setting [6]), 50% in assay [3] (setting [7]) and 0% in assay [4] (setting [8]).
On to `C=Cc1cccc(OC(CC)C2=NCCN2)c1Cl` (stereo not shown) [Compound 1.012], for which the pest or weed control at 200 ppm in assay [2] (setting [6]), in assay [3] (setting [7]) and in assay [4] (setting [8]) was 0% in each case.
Take `CC(Oc1cccc(C(F)(F)F)c1Cl)C1=NCCN1` (stereo not shown) [Compound 1.014]: the pest or weed control at 200 ppm in assay [2] (setting [6]) turned out to be 100%; in assay [3] (setting [7]) it was 80%; in assay [4] (setting [8]), 80%. Further, the pest or weed control at 24 ppm in assay [5] (setting [9]) stood at 50%.
With `CCCC(Oc1cccc(C(F)(F)F)c1Cl)C1=NCCN1` (stereo not shown) [Compound 1.015], the “control of Myzus persicae” value in assay [2] (setting [6]) was 100%; in assay [5] (setting [9]) it was 50%. Moreover, the “control of Heliothis virescens” value in assay [3] (setting [7]) turned out to be 100%. In assay [4] (setting [8]), the “control of Tetranychus urticae” value amounted to 100%.
With `CC(C)C(Oc1cccc(C(F)(F)F)c1Cl)C1=NCCN1` (stereo not shown) [Compound 1.016], the pest or weed control at 200 ppm in assay [2] (setting [6]) is 100%; in assay [3] (setting [7]) it was 0%; in assay [4] (setting [8]), 100%. In addition, the pest or weed control at 24 ppm in assay [5] (setting [9]) amounted to 80%.
As to `C=Cc1cccc(OC(CC)C2=NCCN2C(=O)OC(C)(C)C)c1Cl` (stereo not shown) [Compound 1.017], the pest or weed control at 200 ppm in assay [2] (setting [6]), in assay [3] (setting [7]) and in assay [4] (setting [8]) was 0% each time.
For `CCC(Oc1cccc(CSC)c1Cl)C1=NCCN1` (stereo not shown) [Compound 1.019], the “control of Myzus persicae” value in assay [2] (setting [6]) stood at 0%. Moreover, the “control of Heliothis virescens” value in assay [3] (setting [7]) came out at 0%. The “control of Tetranychus urticae” value in assay [4] (setting [8]) is 0%.
As for `CCC(Oc1cccc(C(F)(F)F)c1I)C1=NCCN1.O=C(O)/C=C\C(=O)O` (stereo not shown) [Compound 1.020], the results for the “control of Myzus persicae” value in assay [2] (setting [6]) and in assay [5] (setting [9]) were 100% and 80%, respectively. For the same molecule, the “control of Heliothis virescens” value in assay [3] (setting [7]) came to 0%. The “control of Tetranychus urticae” value in assay [4] (setting [8]) came to 100%.
With `CCCC(Oc1cccc(Br)c1Br)C1=NCCN1` (stereo not shown) [Compound 1.021], the pest or weed control at 200 ppm in assay [2] (setting [6]), in assay [3] (setting [7]) and in assay [4] (setting [8]) was 100% each time. The pest or weed control at 24 ppm in assay [5] (setting [9]) was 0%.
With `CCCC(Oc1cccc(I)c1Br)C1=NCCN1` (stereo not shown) [Compound 1.022], the pest or weed control at 200 ppm in assay [2] (setting [6]) came out at 100%; in assay [3] (setting [7]), 50%; in assay [4] (setting [8]) it was 80%.
For `CC(Oc1cccc(C(F)F)c1Cl)C1=NCCN1` (stereo not shown) [Compound 1.023], the pest or weed control at 200 ppm is 100% in assay [2] (setting [6]), 80% in assay [3] (setting [7]) and 0% in assay [4] (setting [8]). For the same molecule, in assay [5] (setting [9]), the pest or weed control at 24 ppm is 0%.
Regarding `CCC(Oc1cccc(C#N)c1Cl)C1=NCCN1` (stereo not shown) [Compound 1.024], the pest or weed control at 200 ppm in assay [2] (setting [6]) was determined as 80%; in assay [3] (setting [7]), 0%; in assay [4] (setting [8]), 100%. The pest or weed control at 24 ppm in assay [5] (setting [9]) was determined as 50%.
Regarding `CCC(Oc1cccc(C#N)c1Cl)C1=NCCN1C(=O)OC(C)(C)C` (stereo not shown) [Compound 1.025], the pest or weed control at 200 ppm in assay [2] (setting [6]) came out at 0%; in assay [3] (setting [7]) it was 0%; in assay [4] (setting [8]), 50%.
On to `CCCCC(Oc1cccc(C(F)(F)F)c1Cl)C1=NCCN1` (stereo not shown) [Compound 1.027], for which the values for the pest or weed control at 200 ppm in assay [2] (setting [6]), in assay [3] (setting [7]) and in assay [4] (setting [8]) were 80%, 50% and 100%, respectively. Moreover, in assay [5] (setting [9]), the pest or weed control at 24 ppm amounted to 0%.
The like results for `CCCC(Oc1cccc(C(F)F)c1Cl)C1=NCCN1` (stereo not shown) [Compound 1.028] were, in that order, 100%, 80%, 100% and 100%.
Take `CCCCC(Oc1cccc(C(F)F)c1Cl)C1=NCCN1` (stereo not shown) [Compound 1.029]: the pest or weed control at 200 ppm in assay [3] (setting [7]) was determined as 80%.
As to `CC(C)C(Oc1cccc(C(F)F)c1Cl)C1=NCCN1` (stereo not shown) [Compound 1.030], the pest or weed control at 200 ppm in assay [2] (setting [6]) amounted to 100%; in assay [3] (setting [7]), 0%; in assay [4] (setting [8]) it was 100%. The pest or weed control at 24 ppm in assay [5] (setting [9]) turned out to be 80%.
`CCCC(Oc1cccc(CF)c1Cl)C1=NCCN1` (stereo not shown) [Compound 1.031]: the pest or weed control at 200 ppm in assay [2] (setting [6]) was 100%; in assay [3] (setting [7]) it was 0%; in assay [4] (setting [8]), 100%. Further, in assay [5] (setting [9]), the pest or weed control at 24 ppm came out at 80%.
Take `CCCCC(Oc1cccc(CF)c1Cl)C1=NCCN1` (stereo not shown) [Compound 1.032]: the pest or weed control at 200 ppm in assay [2] (setting [6]) amounted to 100%; in assay [3] (setting [7]), 0%; in assay [4] (setting [8]), 0%. The pest or weed control at 24 ppm in assay [5] (setting [9]) came to 50%.
Consider `CCCC(Oc1cccc(I)c1Cl)C1=NCCN1` (stereo not shown) [Compound 1.033], for which the pest or weed control at 200 ppm worked out at 100% in assay [2] (setting [6]), 80% in assay [3] (setting [7]) and 80% in assay [4] (setting [8]). Also, the pest or weed control at 24 ppm in assay [5] (setting [9]) came to 0%.
In the case of `CCC(Oc1cccc(CCl)c1Cl)C1=NCCN1C(=O)OC(C)(C)C` (stereo not shown) [Compound 1.034], in assay [2] (setting [6]), the “control of Myzus persicae” value was found to be 0%. Further, in assay [3] (setting [7]), the “control of Heliothis virescens” value was 100%. For the same molecule, the “control of Tetranychus urticae” value in assay [4] (setting [8]) is given as 0%.
For the molecule `CCC(Oc1cccc(C[S+](C)[O-])c1Cl)C1=NCCN1` (stereo not shown) [Compound 1.035], in assay [2] (setting [6]), the “control of Myzus persicae” value came out at 0%. Moreover, the “control of Heliothis virescens” value in assay [3] (setting [7]) was 0%. In assay [4] (setting [8]), the “control of Tetranychus urticae” value is given as 0%.
On to `CCCC(Oc1cccc(Br)c1Cl)C1=NCCN1` (stereo not shown) [Compound 1.036], for which the pest or weed control at 200 ppm in assay [2] (setting [6]), in assay [3] (setting [7]) and in assay [4] (setting [8]) was 100% in each case. In addition, the pest or weed control at 24 ppm in assay [5] (setting [9]) was 0%.
Turning to `CC(C)C(Oc1cccc(CF)c1Cl)C1=NCCN1` (stereo not shown) [Compound 1.037], the pest or weed control at 200 ppm is 100% in assay [2] (setting [6]), 80% in assay [3] (setting [7]) and 100% in assay [4] (setting [8]). Besides, the pest or weed control at 24 ppm in assay [5] (setting [9]) worked out at 50%.

For the origin of these results see patent publication US8455663B2, “Halosubstituted aryloxyalkylimidazolines for use as pesticides” (Syngenta Crop Protection LLC, priority 2007, dated 2013).
